Measured values as given in patent US6372779B1, “Anti-inflammatory compounds” (Ortho Pharmaceutical Corporation, priority 1997, dated 2002).

Legend:
[1] = test system: oxazolone-induced ear swelling in CD-1 mice; assay: mouse oxazolone-induced contact hypersensitization (MOCH), ear swelling; format: in vivo; conditions: topical to ear, 1 mg, mouse, 24 hours after oxazolone challenge; read-out: Oxazolone Ear Swelling (MOCH) % inhibition vs. Vehicle at 1 mg
Description: Several triphenylpropanamide compounds of this invention, having varying affinities for the human glucocorticoid receptor, were tested for topical antiinflammatory activity in mouse ear inflammation models. […] Compounds having receptor affinities closer to hydrocortisone were as nearly active as hydrocortisone in suppressing mouse oxazolone-induced contact hypersensitization (MOCH) and phorbol ester-induced ear edema. The in vivo studies of this example were conducted as follows.
In determining the MOCH using the compounds of this invention, albino male CD-1 mice, 7-9 weeks old were induced on the shaved abdomen with 50 μl of 3% oxazolone in acetone/corn oil (Day 0). On Day 5, a 20 μl volume of 2% oxazolone in acetone was applied to the dorsal left ear of the mouse. Compounds (made in ethanol/propylene glycol, 70:30) were applied to the left ear in 20 μl volume, one hour after oxazolone challenge. The right ear was not treated. The mice were sacrificed by carbon dioxide inhalation 24 hours after oxazolone challenge, the left and right ears were removed and a 7 mm biopsy was removed from each ear and weighed. The difference in biopsy weights between the right and left ears was calculated. Antiinflammatory effects of compounds were evident as an inhibition of the increase in ear weight.

[2] = test system: human progesterone receptor (hPR); assay: human progesterone receptor binding assay (displacement of 3H R5020 promegestone)
Description: A human progesterone receptor binding assay was performed in order to determine selectivity of the compounds, as follows. Human progesterone receptors were prepared from either insect cells (SF21) infected with baculovirus hPR A, or from a breast cancer cell line, T47D, which expresses high levels of endogenous hPR. The receptor binding reactions, with or without test compounds, were set up in 96-well microtiter plates which were previously siliconized with SIGMACOTE. The binding components, 3(H) R5020 Promegestone, a high affinity ligand for the progesterone receptors, glycerollmolybdate-containing buffer and unlabeled compounds were added to the wells using a combination of BIOMEK laboratory automation system and repeat pipettes. After overnight incubation, the samples were precipitated with polyethylene glycol and filtered through Whatman GF/F paper using a TOMTEK cell harvester. The filter mate with 96 samples were bound to a solid-phase scintillant and directly counted in the BETAPLATE counter. Only those compounds that were active in the human glucocorticoid receptor assay set forth in Example 30 were used for progesterone receptor binding to determine cross-reactivity profiles, if any. The activity of test compounds to displace 3(H) R5020 binding to hPR is expressed as percent inhibition at the two concentrations, 10^−6 and 10^−5 Molar.

## O=C(NCC(c1ccccc1)C(c1ccccc1)c1ccccc1)Oc1ccccc1 (stereo not shown) [Compound 56]
[1]
  inhibition in vivo at 1 mg: 38%
other
  melting point: 128 to 129 °C

## O=C(NCC(c1ccccc1)C(c1ccccc1)c1ccccc1)Oc1ccc(F)cc1 (stereo not shown) [Compound 58]
[1]
  inhibition in vivo at 1 mg: 16%
other
  melting point: 150 to 151 °C

## CCCC(=O)NCC(c1ccccc1)C(c1ccccc1)c1ccccc1 (stereo not shown) [Compound 60]
[1]
  inhibition in vivo at 1 mg: 27%
other
  melting point: 88 to 89 °C

## CC(C)C(=O)NCC(c1ccccc1)C(c1ccccc1)c1ccccc1 (stereo not shown) [Compound 61]
[1]
  inhibition in vivo at 1 mg: 17%
other
  melting point: 114 to 115 °C

## CCCCC(=O)NCC(c1ccccc1)C(c1ccccc1)c1ccccc1 (stereo not shown) [Compound 62]
[1]
  inhibition in vivo at 1 mg: 36%
other
  melting point: 78 to 79 °C

## CC(C)CC(=O)NCC(c1ccccc1)C(c1ccccc1)c1ccccc1 (stereo not shown) [Compound 63]
[1]
  inhibition in vivo at 1 mg: 3%
other
  melting point: 112 to 113 °C

## CC(C)(C)C(=O)NCC(c1ccccc1)C(c1ccccc1)c1ccccc1 (stereo not shown) [Compound 64]
[1]
  inhibition in vivo at 1 mg: 26%
other
  melting point: 143 to 144 °C

## CCOC(=O)CC(=O)NCC(c1ccccc1)C(c1ccccc1)c1ccccc1 (stereo not shown) [Compound 65]
[1]
  inhibition in vivo at 1 mg: 13%
other
  melting point: 103 to 105.5 °C

## O=C(Cc1ccccc1)NCC(c1ccccc1)C1c2ccccc2-c2ccccc21 (stereo not shown) [Compound 66]
[1]
  inhibition in vivo at 1 mg: 20%
other
  melting point: 148.7 to 150.8 °C

## COc1ccccc1CCC(=O)NCC(c1ccccc1)C1c2ccccc2CCc2ccccc21 (stereo not shown) [Compound 74]
[1]
  inhibition in vivo at 1 mg: 18%
other
  melting point: 134.3 to 136.8 °C

## O=C(Cc1cccs1)NCC(c1ccccc1)C1c2ccccc2CCc2ccccc21 (stereo not shown) [Compound 75]
[1]
  inhibition in vivo at 1 mg: 26%
other
  melting point: 175 to 177.5 °C

## O=C(Cc1ccsc1)NCC(c1ccccc1)C1c2ccccc2CCc2ccccc21 (stereo not shown) [Compound 76]
[1]
  inhibition in vivo at 1 mg: 23%
other
  melting point: 167.3 to 169.3 °C

## Cc1ccc(C(=O)NCC(c2ccccc2)C2c3ccccc3CCc3ccccc32)s1 (stereo not shown) [Compound 77]
[1]
  inhibition in vivo at 1 mg: 41%
other
  melting point: 172.1 to 173 °C

## COc1ccc(CC(=O)NCC2(c3ccccc3)CC2(c2ccccc2)c2ccccc2)cc1OC (stereo not shown) [Compound 79]
[1]
  inhibition in vivo at 1 mg: 18%
other
  melting point: 131 to 133.5 °C

## O=C(Cc1ccccc1Cl)NCC1(c2ccccc2)CC1(c1ccccc1)c1ccccc1 (stereo not shown) [Compound 80, N-(2chlorophenyl)acetyl-1,2,2-triphenylcyclopropylmethylamine]
[1]
  inhibition in vivo at 1 mg: 54%
other
  melting point: 128.5 to 130.5 °C

## COc1ccccc1CCC(=O)NCC1(c2ccccc2)CC1(c1ccccc1)c1ccccc1 (stereo not shown) [Compound 81]
[1]
  inhibition in vivo at 1 mg: 22%
other
  melting point: 187.5 to 189 °C

## O=C(NCC1(c2ccccc2)CC1(c1ccccc1)c1ccccc1)C(c1ccccc1)c1ccccc1 (stereo not shown) [Compound 82]
[1]
  inhibition in vivo at 1 mg: 23%
other
  melting point: 166 to 169 °C

## CCCC(=O)NCC1(c2ccccc2)CC1(c1ccccc1)c1ccccc1 (stereo not shown) [Compound 83]
[1]
  inhibition in vivo at 1 mg: -4%
other
  melting point: 149 to 150 °C

## CC(C)C(=O)NCC1(c2ccccc2)CC1(c1ccccc1)c1ccccc1 (stereo not shown) [Compound 84]
[1]
  inhibition in vivo at 1 mg: 54%
other
  melting point: 167 to 168 °C

## CCCCC(=O)NCC1(c2ccccc2)CC1(c1ccccc1)c1ccccc1 (stereo not shown) [Compound 87]
[1]
  inhibition in vivo at 1 mg: 22%
other
  melting point: 122 to 123 °C

## O=C(Cc1cccs1)NCC1(c2ccccc2)CC1(c1ccccc1)c1ccccc1 (stereo not shown) [Compound 88]
[1]
  inhibition in vivo at 1 mg: 29%
other
  melting point: 135 to 137 °C

## O=C(Cc1ccsc1)NCC1(c2ccccc2)CC1(c1ccccc1)c1ccccc1 (stereo not shown) [Compound 89]
[1]
  inhibition in vivo at 1 mg: 16%
other
  melting point: 130 to 135 °C

## O=C(NCC1(c2ccccc2)CC1(c1ccccc1)c1ccccc1)c1cccs1 (stereo not shown) [Compound 90]
[1]
  inhibition in vivo at 1 mg: 65%
other
  melting point: 152.5 to 155 °C

## Cc1ccc(C(=O)NCC2(c3ccccc3)CC2(c2ccccc2)c2ccccc2)s1 (stereo not shown) [Compound 91]
[1]
  inhibition in vivo at 1 mg: 13%
other
  melting point: 168 to 170.5 °C

## O=C(NCC1(c2ccccc2)CC1(c1ccccc1)c1ccccc1)Nc1ccccc1 (stereo not shown) [Compound 92]
[1]
  inhibition in vivo at 1 mg: 42%
other
  melting point: 209 to 210 °C

## O=C(NCC1(c2ccccc2)CC1(c1ccccc1)c1ccccc1)Oc1ccccc1 (stereo not shown) [Compound 96]
[1]
  inhibition in vivo at 1 mg: 52%
other
  melting point: 146 to 147 °C

## O=C(NCC1(c2ccccc2)CC1(c1ccccc1)c1ccccc1)Oc1ccc(Cl)cc1 (stereo not shown) [Compound 97]
[1]
  inhibition in vivo at 1 mg: 50%
other
  melting point: 171 to 172 °C

## O=C(Cc1cc(C(F)(F)F)cc(C(F)(F)F)c1)NCC(c1ccc(C(F)(F)F)cc1)C(c1ccccc1)c1ccccc1 (stereo not shown) [Compound 151]
[2]
  hPR % inh 10 μM: 41%

## Cc1ccc(CC(=O)NCC(c2ccc(C(F)(F)F)cc2)C(c2ccccc2)c2ccccc2)cc1 (stereo not shown) [Compound 152]
[2]
  hPR % inh 10 μM: 41%

## O=C(Cc1ccc([N+](=O)[O-])cc1)NCC(c1ccc(C(F)(F)F)cc1)C(c1ccccc1)c1ccccc1 (stereo not shown) [Compound 154]
[2]
  hPR % inh 10 μM: 34%

## CN(C)c1ccc(CC(=O)NCC(c2ccc(C(F)(F)F)cc2)C(c2ccccc2)c2ccccc2)cc1 (stereo not shown) [Compound 155]
[2]
  hPR % inh 10 μM: 29%

## O=C(Cc1ccc(-c2ccccc2)cc1)NCC(c1ccc(C(F)(F)F)cc1)C(c1ccccc1)c1ccccc1 (stereo not shown) [Compound 156]
[2]
  hPR % inh 10 μM: 19%

## O=C(Cc1ccc2ccccc2c1)NCC(c1ccc(C(F)(F)F)cc1)C(c1ccccc1)c1ccccc1 (stereo not shown) [Compound 157]
[2]
  hPR % inh 10 μM: 10%

## Cc1c(CC(=O)NCC(c2ccc(C(F)(F)F)cc2)C(c2ccccc2)c2ccccc2)sc2ccc(Cl)cc12 (stereo not shown) [Compound 158]
[2]
  hPR % inh 10 μM: 16%

## CN(C)c1ccc(C=CC(=O)NCC(c2ccc(C(F)(F)F)cc2)C(c2ccccc2)c2ccccc2)cc1 (stereo not shown) [Compound 159]
[2]
  hPR % inh 10 μM: 12%

## O=C(NCC(c1ccc(C(F)(F)F)cc1)C(c1ccccc1)c1ccccc1)c1cc(C(F)(F)F)cc(C(F)(F)F)c1 (stereo not shown) [Compound 160]
[2]
  hPR % inh 10 μM: 10%

## O=C(Cc1ccccc1Cl)NCC(c1ccc(I)cc1)C(c1ccccc1)c1ccccc1 (stereo not shown) [Compound 161]
[2]
  hPR % inh 10 μM: 42%

## O=C(Cc1ccc(Cl)cc1)NCC(c1ccc(I)cc1)C(c1ccccc1)c1ccccc1 (stereo not shown) [Compound 162]
[2]
  hPR % inh 10 μM: 30%

## O=C(Cc1ccc(Cl)c(Cl)c1)NCC(c1ccc(I)cc1)C(c1ccccc1)c1ccccc1 (stereo not shown) [Compound 163]
[2]
  hPR % inh 10 μM: 44%

## O=C(Cc1ccccc1F)NCC(c1ccc(I)cc1)C(c1ccccc1)c1ccccc1 (stereo not shown) [Compound 164]
[2]
  hPR % inh 10 μM: 40%

## O=C(Cc1ccc(F)cc1)NCC(c1ccc(I)cc1)C(c1ccccc1)c1ccccc1 (stereo not shown) [Compound 165]
[2]
  hPR % inh 10 μM: 79%

## O=C(Cc1ccc(C(F)(F)F)cc1)NCC(c1ccc(I)cc1)C(c1ccccc1)c1ccccc1 (stereo not shown) [Compound 166]
[2]
  hPR % inh 10 μM: 46%

## O=C(Cc1cc(C(F)(F)F)cc(C(F)(F)F)c1)NCC(c1ccc(I)cc1)C(c1ccccc1)c1ccccc1 (stereo not shown) [Compound 167]
[2]
  hPR % inh 10 μM: 63%

## COc1ccccc1CC(=O)NCC(c1ccc(I)cc1)C(c1ccccc1)c1ccccc1 (stereo not shown) [Compound 168]
[2]
  hPR % inh 10 μM: 32%

## COc1cccc(CC(=O)NCC(c2ccc(I)cc2)C(c2ccccc2)c2ccccc2)c1 (stereo not shown) [Compound 169]
[2]
  hPR % inh 10 μM: 45%

## COc1ccc(CC(=O)NCC(c2ccc(I)cc2)C(c2ccccc2)c2ccccc2)cc1 (stereo not shown) [Compound 170]
[2]
  hPR % inh 10 μM: 25%

## COc1cc(CC(=O)NCC(c2ccc(I)cc2)C(c2ccccc2)c2ccccc2)cc(OC)c1 (stereo not shown) [Compound 171]
[2]
  hPR % inh 10 μM: 25%

## O=C(NCC(c1ccc(I)cc1)C(c1ccccc1)c1ccccc1)c1ccccc1Cl (stereo not shown) [Compound 172]
[2]
  hPR % inh 10 μM: 32%

## O=C(NCC(c1ccc(I)cc1)C(c1ccccc1)c1ccccc1)c1ccc(Cl)cc1 (stereo not shown) [Compound 173]
[2]
  hPR % inh 10 μM: 72%

## O=C(NCC(c1ccc(I)cc1)C(c1ccccc1)c1ccccc1)c1ccc(Cl)c(Cl)c1 (stereo not shown) [Compound 174]
[2]
  hPR % inh 10 μM: 50%

## O=C(NCC(c1ccc(I)cc1)C(c1ccccc1)c1ccccc1)c1ccccc1F (stereo not shown) [Compound 175]
[2]
  hPR % inh 10 μM: 65%

## O=C(NCC(c1ccc(I)cc1)C(c1ccccc1)c1ccccc1)c1ccc(F)cc1 (stereo not shown) [Compound 176]
[2]
  hPR % inh 10 μM: 68%

## O=C(NCC(c1ccc(I)cc1)C(c1ccccc1)c1ccccc1)c1ccc(C(F)(F)F)cc1 (stereo not shown) [Compound 177]
[2]
  hPR % inh 10 μM: 53%

## O=C(NCC(c1ccc(I)cc1)C(c1ccccc1)c1ccccc1)c1cc(C(F)(F)F)cc(C(F)(F)F)c1 (stereo not shown) [Compound 178]
[2]
  hPR % inh 10 μM: 53%

## O=C(NCC(c1ccc(I)cc1)C(c1ccccc1)c1ccccc1)c1cccs1 (stereo not shown) [Compound 179]
[2]
  hPR % inh 10 μM: 53%
